Results reported in US20220339260A1, “METHOD FOR PRODUCING INSULIN-PRODUCING CELL USING DIHYDROINDOLIZINONE DERIVATIVES” (TOKYO INSTITUTE OF TECHNOLOGY, priority 2019, published 2022).

Test system: human iPS cell Toe strain
Assay: Effect to promote differentiation from human iPS cells into insulin-producing cells (insulin-positive cell rate, Reference Example 1)
Assay type: cell-based
Set-up: key to Activity: the sum of activity values at the two concentrations was obviously higher than the control untreated with compounds while being lower than the positive control was expressed as +; the sum was equivalent to the positive control was expressed as ++; the sum was higher than the positive control was expressed as +++
Conditions: activity intensity: sum of activity values (increment in insulin-positive cell rate) at 2 μM and 10 μM compared with positive control (compound of Synthesis Example 1)
Source text: The evaluation system of the effect (efficacy) to promote differentiation from human iPS cells into insulin-producing cells was constructed with reference to known information (Non Patent Document 6). Further, the medium used in each differentiation stage was also produced with reference to known information (differentiation media A to E (Media A to E) described in Non Patent Document 6 were used respectively for stages 1 to 5; however, a medium free from GLP-1 receptor agonist and nicotinamide was used as differentiation medium E).
In order to evaluate the efficacy of each compound, the compound of Synthesis Example 1 was used as a positive control, and dimethylsulfoxide (DMSO) (SIGMA, D2650) with a final concentration of 0.1% was used as a control untreated with compounds. Each compound was dissolved in DMSO, and two types of compound solutions were prepared so as to have final concentrations of 2 μM and 10 μM after the compound was added to the medium. In the following evaluation, the compound solutions were added to the medium to 0.1% that is the final concentration of DMSO.
First, induction from human iPS cell Toe strain (National Institutes of Biomedical Innovation, Health and Nutrition) into cells on day 7 of culture (2 days after replacement with differentiation medium C (cells in the differentiation process from FOXA2-positive primitive gut tube cells into PDX1-positive pancreatic progenitor cells)) was performed according to the method of Non Patent Document 6 for “inducing differentiation from human iPS cells into pancreatic β cells”, and the cells were collected and thereafter stored in liquid nitrogen using Bambanker (NIPPON Genetics Co, Ltd.) at 1×10^7 cells/mL/tube, to produce a cell stock for evaluation. The cell stock was dissolved at the start of the evaluation of efficacy, suspended in differentiation medium C for stage 3 (DMEM high glucose (Life technologies, 11965092), 0.25 μM SANT-1, 0.1 μM LDN193189 (Stemgent, 04-0074), 10 μM SB431542, 2 μM Retinoic acid (Stemgent, 04-0021), 1% B27 serum free supplement (Life technologies, 17504044) and thereafter seeded in a 96-well plate (Corning, #3340) coated with Synthemax II (Corning, #5656) at 1×10^5 cells/well. After culturing for 2 days, the medium was removed, and new differentiation medium C for stage 3 with the compound or only DMSO added was added thereto at 100 μL/well. After culturing for 2 days, the medium was removed, and new differentiation medium D for stage 4 (DMEM high glucose, 0.1 μM LDN193189, 5 μM TGF-β type I receptor kinase inhibitor II (Calbiochem 616452), 0.3 μM (−)-indolactam V (Enzo life science ALX-420-011-C300), 1% B27 serum free supplement) with the compound or only DMSO added was added thereto at 100 μL/well. After culturing for 2 to 3 days, the medium was removed, and new differentiation medium E for stage 5 (GLP-1 receptor agonist and nicotinamide-free; Knockout […] (Life technologies, 12660012), 1% B27 serum free supplement) with the compound or only DMSO added was added thereto at 200 μL/well. After culturing for 2 days, the medium was removed, and a 4% paraformaldehyde phosphorus acid buffer (Wako, 163-20145) was added thereto at 150 μL/well and left standing for 30 to 60 minutes at room temperature to fix the cells. A phosphorus acid buffer (PBS) (Takara, T9181) containing 1% Triton X-100 (Sigma, T8787) was left standing for 15 minutes at room temperature, then washed with PBS-T (Takara, T9183), and was blocked for 1 hour using 20% Blocking One (Nacalai tesque, Tokyo, Japan) diluted with PBS-T at room temperature. After the removal of Blocking One, guinea pig anti-insulin antibody (Abcam, ab7842) diluted 200-fold with 20% Blocking One was added thereto at 50 μL/well, followed by standing at 4° C. overnight. […]

O=C1CCC(C(=O)Nc2ncc(-c3ccccc3)s2)n2cccc21 (stereo not shown) [Example 1]
Activity: ++

COC(=O)c1ccc(-c2cnc(NC(=O)C3CCC(=O)c4cccn43)s2)cc1 (stereo not shown) [Example 2]
Activity: ++

CN(C)C(=O)c1ccc(-c2cnc(NC(=O)C3CCC(=O)c4cccn43)s2)cc1 (stereo not shown) [Example 3]
Activity: +

O=C1CCC(C(=O)Nc2ncc(-c3ccc4c(c3)OCO4)s2)n2cccc21 (stereo not shown) [Example 4]
Activity: ++

O=C(O)c1ccc(-c2cnc(NC(=O)C3CCC(=O)c4cccn43)s2)cc1 (stereo not shown) [Example 5]
Activity: +

NC(=O)c1ccc(-c2cnc(NC(=O)C3CCC(=O)c4cccn43)s2)cc1 (stereo not shown) [Example 6]
Activity: +

N#Cc1ccc(-c2cnc(NC(=O)C3CCC(=O)c4cccn43)s2)cc1 (stereo not shown) [Example 7]
Activity: +

CN(C)C(=O)COc1ccc(-c2cnc(NC(=O)C3CCC(=O)c4cccn43)s2)cc1 (stereo not shown) [Example 8]
Activity: ++

O=C1CCC(C(=O)Nc2ncc(-c3ccc(OC(F)(F)F)cc3)s2)n2cccc21 (stereo not shown) [Example 9]
Activity: +++

CC(C)(C)Oc1ccc(-c2cnc(NC(=O)C3CCC(=O)c4cccn43)s2)cc1 (stereo not shown) [Example 11]
Activity: +++

O=C1CCC(C(=O)Nc2ncc(-c3ccc(Cl)cc3)s2)n2cccc21 (stereo not shown) [Example 12]
Activity: ++

O=C1CCC(C(=O)Nc2ncc(-c3cccc(Cl)c3)s2)n2cccc21 (stereo not shown) [Example 13]
Activity: ++

O=C1CCC(C(=O)Nc2ncc(-c3ccccc3Cl)s2)n2cccc21 (stereo not shown) [Example 14]
Activity: +

O=C1CCC(C(=O)Nc2ncc(-c3cccc(F)c3)s2)n2cccc21 (stereo not shown) [Example 15]
Activity: +

O=C1CCC(C(=O)Nc2ncc(-c3ccc(F)cc3)s2)n2cccc21 (stereo not shown) [Example 16]
Activity: ++

O=C1CCC(C(=O)Nc2ncc(-c3ccccc3F)s2)n2cccc21 (stereo not shown) [Example 17]
Activity: ++

Cc1ccc(-c2cnc(NC(=O)C3CCC(=O)c4cccn43)s2)cc1 (stereo not shown) [Example 18]
Activity: ++

Cc1ccccc1-c1cnc(NC(=O)C2CCC(=O)c3cccn32)s1 (stereo not shown) [Example 19]
Activity: ++

Cc1cccc(-c2cnc(NC(=O)C3CCC(=O)c4cccn43)s2)c1 (stereo not shown) [Example 20]
Activity: ++

O=C1CCC(C(=O)Nc2ncc(-c3ccc(C(F)(F)F)cc3)s2)n2cccc21 (stereo not shown) [Example 21]
Activity: +++

COc1ccccc1-c1ccc(-c2cnc(NC(=O)C3CCC(=O)c4cccn43)s2)cc1 (stereo not shown) [Example 22]
Activity: +++

Cc1ccc(-c2ccc(-c3cnc(NC(=O)C4CCC(=O)c5cccn54)s3)cc2)cc1 (stereo not shown) [Example 23]
Activity: +

O=C1CCC(C(=O)Nc2ncc(-c3ccc4ccccc4c3)s2)n2cccc21 (stereo not shown) [Example 24]
Activity: +

O=C1CCC(C(=O)Nc2ncc(-c3cccc(OC(F)(F)F)c3)s2)n2cccc21 (stereo not shown) [Example 25]
Activity: +++

COc1ccc(-c2cnc(NC(=O)C3CCC(=O)c4cccn43)s2)cc1 (stereo not shown) [Example 26]
Activity: ++

COc1cccc(-c2cnc(NC(=O)C3CCC(=O)c4cccn43)s2)c1 (stereo not shown) [Example 27]
Activity: ++

Cc1cc(OC(F)(F)F)ccc1-c1cnc(NC(=O)C2CCC(=O)c3cccn32)s1 (stereo not shown) [Example 28]
Activity: +++

Cc1cc(-c2cnc(NC(=O)C3CCC(=O)c4cccn43)s2)ccc1OC(F)(F)F (stereo not shown) [Example 29]
Activity: +++

O=C1CCC(C(=O)Nc2ncc(-c3ccc(OC(F)(F)F)c(Cl)c3)s2)n2cccc21 (stereo not shown) [Example 30]
Activity: +++

O=C1CCC(C(=O)Nc2ncc(-c3ccc(OC(F)(F)F)c(CO)c3)s2)n2cccc21 (stereo not shown) [Example 31]
Activity: +

O=C1CCC(C(=O)Nc2ncc(-c3ccc(OCc4ccccc4)cc3)s2)n2cccc21 (stereo not shown) [Example 32]
Activity: +++

CC(C)Oc1ccc(-c2cnc(NC(=O)C3CCC(=O)c4cccn43)s2)cc1 (stereo not shown) [Example 33]
Activity: +++

Cc1nc(NC(=O)C2CCC(=O)c3cccn32)sc1-c1ccccc1 (stereo not shown) [Example 34]
Activity: ++

Cc1nc(NC(=O)C2CCC(=O)c3cccn32)sc1-c1ccc(OC(C)(C)C)cc1 (stereo not shown) [Example 35]
Activity: +++

Cc1nc(NC(=O)C2CCC(=O)c3cccn32)sc1-c1ccc(OC(F)(F)F)cc1 (stereo not shown) [Example 36]
Activity: +++

O=C1CCC(C(=O)Nc2ncc(-c3ccc(CO)cc3)s2)n2cccc21 (stereo not shown) [Example 37]
Activity: +

COCCOc1ccc(-c2cnc(NC(=O)C3CCC(=O)c4cccn43)s2)cc1 (stereo not shown) [Example 38]
Activity: +++

O=C1CCC(C(=O)Nc2ncc(-c3ccc(OC(F)F)cc3)s2)n2cccc21 (stereo not shown) [Example 39]
Activity: +++

O=C1CCC(C(=O)Nc2ncc(-c3ccc4c(c3)OC(F)(F)O4)s2)n2cccc21 (stereo not shown) [Example 40]
Activity: +++

O=C1CCC(C(=O)Nc2ncc(-c3ccc(N4CCOCC4)cc3)s2)n2cccc21 (stereo not shown) [Example 41]
Activity: +

CN(C)S(=O)(=O)c1ccc(-c2cnc(NC(=O)C3CCC(=O)c4cccn43)s2)cc1 (stereo not shown) [Example 42]
Activity: +

O=C1CCC(C(=O)Nc2ncc(-c3ccc(OCc4ccccc4)c(F)c3)s2)n2cccc21 (stereo not shown) [Example 43]
Activity: +++

O=C1CCC(C(=O)Nc2ncc(-c3ccc(OCc4ccccc4)cc3F)s2)n2cccc21 (stereo not shown) [Example 44]
Activity: +

O=C1CCC(C(=O)Nc2ncc(-c3ccc(OCC(F)(F)F)cc3)s2)n2cccc21 (stereo not shown) [Example 45]
Activity: +++

O=C1CCC(C(=O)Nc2ncc(-c3ccc(Oc4ccccc4)cc3)s2)n2cccc21 (stereo not shown) [Example 46]
Activity: +++

O=C1CCC(C(=O)Nc2ncc(-c3ccc(Br)cc3)s2)n2cccc21 (stereo not shown) [Example 47]
Activity: ++

CC(C)(C)OC(=O)Oc1ccc(-c2cnc(NC(=O)C3CCC(=O)c4cccn43)s2)cc1 (stereo not shown) [Example 48]
Activity: +

CC(C)COc1ccc(-c2cnc(NC(=O)C3CCC(=O)c4cccn43)s2)cc1 (stereo not shown) [Example 49]
Activity: +++

O=C1CCC(C(=O)Nc2ncc(C3=CCCCC3)s2)n2cccc21 (stereo not shown) [Example 50]
Activity: +

CC(C)(C)OC(=O)N1CC=C(c2cnc(NC(=O)C3CCC(=O)c4cccn43)s2)CC1 (stereo not shown) [Example 51]
Activity: +++

CC(C)COc1ncc(-c2cnc(NC(=O)C3CCC(=O)c4cccn43)s2)cc1Cl (stereo not shown) [Example 52]
Activity: +++

CC(C)(C)OC(=O)N1CC=C(c2cnc(NC(=O)C3CCC(=O)c4cccn43)s2)C1 (stereo not shown) [Example 53]
Activity: ++

Cc1ccc(-c2cnc(NC(=O)C3CCC(=O)c4cccn43)s2)o1 (stereo not shown) [Example 54]
Activity: +

Cc1nc(C)c(-c2cnc(NC(=O)C3CCC(=O)c4cccn43)s2)s1 (stereo not shown) [Example 55]
Activity: +

O=C1CCC(C(=O)Nc2ncc(-c3ccc(Cl)s3)s2)n2cccc21 (stereo not shown) [Example 56]
Activity: ++

CC(=O)c1ccc(-c2cnc(NC(=O)C3CCC(=O)c4cccn43)s2)cc1 (stereo not shown) [Example 57]
Activity: +

O=C1CC(C(=O)Nc2ncc(-c3ccc(OC(F)(F)F)cc3)s2)n2cccc21 (stereo not shown) [Example 58]
Activity: ++

O=C1CCC(C(=O)Nc2nc3ccc(-c4ccc(OC(F)(F)F)cc4)cc3s2)n2cccc21 (stereo not shown) [Example 59]
Activity: +++

O=C1CCC(C(=O)Nc2nc3ccc(-c4ccc(OC(F)F)cc4)cc3s2)n2cccc21 (stereo not shown) [Example 60]
Activity: ++

O=C1CCC(C(=O)Nc2nc3ccc(-c4ccc5c(c4)OC(F)(F)O5)cc3s2)n2cccc21 (stereo not shown) [Example 61]
Activity: +

Cc1cc2n(c1)C(C(=O)Nc1ncc(-c3ccc(OC(F)(F)F)cc3)s1)CCC2=O (stereo not shown) [Example 62]
Activity: +++
